Laboratory results as given in patent publication US7063977B2, “Enzymatic resolution of t-butyl taxane derivatives” (Bristol-Myers Squibb Company, priority 2001, dated 2006).
Read-outs that look alike come from different tables or passages of the source.

How the values were obtained:
tumors in mice = details: oral administration; AACR 1999 abstract 1905; cited from earlier work
[1] = oral administration; Eiseman et al., Suffness et al., quoted from WO 98/53811; cited from earlier work
sc M109 = details: oral, doses as high as 160 mg/kg/inj; toxic doses not reached; cited from earlier work
human tumor xenografts [2] = details: oral; xenografts implanted in athymic rates
[3] = up to 160 mg/kg/day, Suffness et al.; cited from earlier work
human tumor xenografts [4] = details: oral; xenografts implanted in athymic mice

## CC(=O)O[C@H]1C(=O)[C@@]2(C)[C@H]([C@H](OC(=O)c3ccccc3)[C@]34OC(=O)O[C@H]3[C@H](OC(=O)[C@H](O)[C@H](CC(C)C)NC(=O)OC(C)(C)C)C(C)=C1C4(C)C)[C@]1(OC(C)=O)CO[C@@H]1C[C@@H]2O [IDN-5109]
Tumors in mice
  oral activity against tumors in mice: oral activity

## CC(=O)O[C@H]1C(=O)[C@@]2(C)[C@H]([C@H](OC(=O)c3ccccc3)[C@]3(O)C[C@H](OC(=O)[C@H](O)[C@@H](NC(=O)c4ccccc4)c4ccccc4)C(C)=C1C3(C)C)[C@]1(OC(C)=O)CO[C@@H]1C[C@@H]2O [paclitaxel]
[1]
  absorbed when administered orally: less than 1%
Sc M109
  efficacy in murine tumor models (sc M109): without signs of any efficacy
Human tumor xenografts [2]
  activity of orally administered drug against human tumor xenografts: unsuccessful
[3]
  antitumor activity on oral administration: no evidence of antitumor activity
Human tumor xenografts [4]
  activity of orally administered drug against human tumor xenografts: unsuccessful
